Changes are numbered by the printed parent chain. Values joined by “and” are separate entries in the source; they are usually repeats but may differ in a detail not shown here. Identical values can stand only once.
Columns and labels:
[1] = target: T1, Y140A mutant mouse 5-HT3ASR (Mus musculus, UniProt P23979, Y141A); assay: Inhibition of [^3H]granisetron binding, Y140A receptor; conditions: for relative increase in Ki, mutant vs wildtype: Y140A vs wildtype
T1 sequence (P23979 24-483 isoform P23979-2 Y141A): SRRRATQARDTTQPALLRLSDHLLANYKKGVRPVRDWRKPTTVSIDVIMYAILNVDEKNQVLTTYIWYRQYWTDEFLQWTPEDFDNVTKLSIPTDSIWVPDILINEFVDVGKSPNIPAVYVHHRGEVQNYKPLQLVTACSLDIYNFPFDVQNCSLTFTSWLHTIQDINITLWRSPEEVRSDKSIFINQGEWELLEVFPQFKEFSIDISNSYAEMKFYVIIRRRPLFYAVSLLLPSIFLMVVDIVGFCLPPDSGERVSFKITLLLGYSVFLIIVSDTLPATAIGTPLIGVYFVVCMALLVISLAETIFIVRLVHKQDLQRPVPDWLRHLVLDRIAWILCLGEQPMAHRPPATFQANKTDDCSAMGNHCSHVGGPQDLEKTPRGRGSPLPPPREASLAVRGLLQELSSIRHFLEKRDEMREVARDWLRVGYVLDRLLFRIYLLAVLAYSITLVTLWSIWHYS

[2] = target: T2, Y142A mutant mouse 5-HT3ASR (Mus musculus, UniProt P23979, Y143A); assay: Inhibition of [^3H]granisetron binding, Y142A receptor; conditions: for relative increase in Ki, mutant vs wildtype: Y142A vs wildtype
T2 sequence (P23979 24-483 isoform P23979-2 Y143A): T1 sequence (P23979 24-483 isoform P23979-2 Y141A) with A118Y, Y120A

[3] = target: T3, wildtype mouse 5-HT3ASR (Mus musculus, UniProt P23979); assay: biochemical
T3 sequence (P23979 24-483 isoform P23979-2 limits assumed): T1 sequence (P23979 24-483 isoform P23979-2 Y141A) with A118Y

[4] = target: T4, V141A mutant mouse 5-HT3ASR (Mus musculus, UniProt P23979, V142A); assay: biochemical
T4 sequence (P23979 24-483 isoform P23979-2 V142A): T1 sequence (P23979 24-483 isoform P23979-2 Y141A) with A118Y, V119A

[5] = target: T5, E148A mutant mouse 5-HT3ASR (Mus musculus, UniProt P23979, E149A); assay: biochemical
T5 sequence (P23979 24-483 isoform P23979-2 E149A): T1 sequence (P23979 24-483 isoform P23979-2 Y141A) with A118Y, E126A

[6] = target: T6, N151A mutant mouse 5-HT3ASR (Mus musculus, UniProt P23979, N152A); assay: biochemical
T6 sequence (P23979 24-483 isoform P23979-2 N152A): T1 sequence (P23979 24-483 isoform P23979-2 Y141A) with A118Y, N129A

SMILES | Ki [1] | relative increase in Ki, mutant vs wildtype [1] | Ki [2] | relative increase in Ki, mutant vs wildtype [2] | Ki [3] | Ki [4] | Ki [5] | Ki [6]
COc1cc2c3cc1Oc1cc(ccc1O)C[C@@H]1c4c(cc(OC)c(O)c4Oc4ccc(cc4)C[C@@H]3N(C)CC2)CC[N+]1(C)C [d-tc, d-tubocurarine] | 300 ± 120 nM | 50 ± 12 fold and 50 fold | 39 ± 19 nM | 6.5 ± 1.5 fold and 6.5 fold | 6 ± 2.1 nM | 4.7 ± 0.87 nM | 14 ± 1.7 nM | 9.3 ± 1.4 nM
c1ccc(Cn2c(N3CCNCC3)nc3ccccc32)cc1 [lerisetron] | 2.1 ± 0.33 nM | 4.6 fold | 130 ± 28 nM | 160 ± 37 fold and 160 fold | 0.8 ± 0.19 nM | 0.2 ± 0.02 nM | 2.8 ± 0.53 nM | 3.7 ± 0.62 nM

Source: PMC117120 (BMC Biochemistry, 2002)
